Measurements as given in PMC9674596, “Origin of acetylcholine antagonism in ELIC, a bacterial pentameric ligand-gated ion channel” (Communications Biology, 2022).
“Also recorded” adds a separate entry of the source.

Experiments:
ELIC A75D/F133W = biological target: T1, ELIC A75D/F133W (Dickeya chrysanthemi, UniProt P0C7B7, A75D/F133W/INS163G); test: Two-electrode voltage clamp, A75D/F133W double mutant ELIC expressed in Xenopus laevis oocytes; assay type: cell-based, Erwinia chrysanthemi
T1 construct: expressed in transfected cells; host or cells: Xenopus laevis oocytes injected with cRNA; DNA construct synthesised by Twist Bioscience
Description: (§1) Stage V-VI Xenopus laevis oocytes were isolated[72] and deflocculated enzymatically in ND96 buffer without Ca^2+ (96 mM NaCl, 2 mM KCl, 1 mM MgCl2, 2 mM pyruvate, 5 mM HEPES, pH 7.4), but supplemented with 1 mg/mL collagenase B and 1 mg/mL trypsin inhibitor, for 2 h at room temperature under constant stirring. The deflocculation buffer was then gradually removed by washing the oocytes in ND96 buffer (96 mM NaCl, 2 mM KCl, 1 mM MgCl2, 1 mM CaCl2, 2 mM pyruvate, 5 mM HEPES, pH 7.4) for several iterations. The oocytes were then allowed to stir for an additional hour at room temperature under constant stirring with the buffer being periodically replaced until clear. To obtain optimal receptor expression, individually selected and healthy oocytes were injected with 0.2 ng cRNA for wild-type ELIC and 5 ng cRNA for mutants. Subsequently, oocytes were incubated for one day at 16 °C in ND96^+ buffer (96 mM NaCl, 2 mM KCl, 1 mM MgCl2, 1 mM CaCl2, 2 mM pyruvate, and 5 mM HEPES at pH 7.6). After expression, injected oocytes were placed in a RC-1Z oocyte chamber (Harvard Apparatus; Hamden, CT) containing buffer (pH 7.4) composed of 150 mM NaCl, 0.5 mM BaCl2, 10 mM HEPES, and 1 mM dithiothreitol or 1 µM atropine if cysteamine, or ACh, was used in the experiment, respectively. The presence of the reducing agent, dithiothreitol, ensures that the sulfhydryl group of cysteamine remains reduced.
(§2) Once in the oocyte chamber, whole-cell currents were recorded using a two-electrode voltage-clamp apparatus (OC-725C oocyte clamp; Harvard Apparatus), with a buffer flow rate of 5–10 mL min^−1. Currents in response to various additions of cysteamine and/or ACh, were measured with the transmembrane voltage clamped at −60 mV. Dose response curves for each wild-type and mutant ELIC were acquired from at least five oocytes in two different batches.
(§3) For identifying the half maximal effective concentration (EC50) and apparent Hill coefficient (nH) of cysteamine, dose response curves were created by taking the magnitude of each cysteamine-activated peak current (I) and normalizing this value to the maximal peak current in the presence of excess agonist (Imax). The log (base 10) cysteamine concentration in molar was then plotted on the x-axis against the fractional response (I/Imax) on the y-axis. The data was fitted using nonlinear regression with a variable slope sigmoidal dose response (Eq. 1, below) in GraphPad Prism (v.8.0.0).1 y=1/1+10^nH^LogEC50−X
(§4) Individual EC50 and Hill coefficients were averaged for each oocyte to derive a mean ± standard deviation. For identifying a half maximal inhibitory concentration (IC50) and Hill coefficient of ACh, a concentration of cysteamine corresponding to its EC50 was used in the presence of increasing concentrations of ACh. Peak currents elicited from cysteamine with ACh (I) were normalized to the initial cysteamine peak current in the absence of ACh (Io). The log (base 10) ACh concentration was then plotted on the x-axis against the fractional response (I/Io) on the y-axis. Subsequent steps were the same as above for deriving a cysteamine EC50 and Hill coefficient. The individual IC50 and Hill coefficients were averaged for each oocyte to derive a mean ± one standard deviation. Lastly, to identify four normalized response values, cysteamine at the 10% maximal effective concentration (EC10), 20% maximal effective concentration (EC20), EC50 and 90% maximal effective concentration (EC90), was applied in the presence and absence of 25 mM ACh. The cysteamine-activated peak current with 25 mM ACh, was normalized to the cysteamine-activated peak current without ACh.

wild-type ELIC [1] = biological target: T2, wild-type ELIC (Dickeya chrysanthemi, UniProt P0C7B7, INS163G); details: cited from earlier work
T2 construct: expressed in transfected cells; host or cells: Xenopus laevis oocytes injected with cRNA from ELIC-pTLN

ELIC I79Y = biological target: T3, ELIC I79Y (Dickeya chrysanthemi, UniProt P0C7B7, I79Y/INS163G); test: Two-electrode voltage clamp, I79Y mutant ELIC expressed in Xenopus laevis oocytes; assay type: cell-based, Erwinia chrysanthemi
T3 construct: expressed in transfected cells; host or cells: Xenopus laevis oocytes injected with cRNA from ELIC-pTLN
Description: as §1, §2, §3
as §4, with “The cysteamine-activated peak current with 25 mM ACh, was normalized to the cysteamine-activated peak current without ACh.” left out

ELIC F133W = ELIC F133W (Dickeya chrysanthemi, UniProt P0C7B7, F133W); test: cell-based; assay type: cell-based, Erwinia chrysanthemi; details: F133W
Description: as §1, §2, §3, §4

ELIC L240A (L9′A) = biological target: T4, ELIC L240A (L9′A) (Dickeya chrysanthemi, UniProt P0C7B7, L239A); test: Two-electrode voltage clamp, L240A (L9′A) mutant ELIC expressed in Xenopus laevis oocytes; assay type: cell-based, Erwinia chrysanthemi
T4 construct: expressed in transfected cells; host or cells: Xenopus laevis oocytes injected with cRNA from ELIC-pTLN
Description: as §1, §2, §3
Individual EC50 and Hill coefficients were averaged for each oocyte to derive a mean ± standard deviation. For identifying a half maximal inhibitory concentration (IC50) and Hill coefficient of ACh, a concentration of cysteamine corresponding to its EC50 was used in the presence of increasing concentrations of ACh. […]

wild-type ELIC [2] = biological target: T2, wild-type ELIC; test: Two-electrode voltage clamp, whole-cell currents of wild-type ELIC expressed in Xenopus laevis oocytes; assay type: cell-based, Erwinia chrysanthemi
Description: as §1, §2, §3
as §4, with “[…] […]” for “For identifying a half maximal inhibitory concentration (IC50) and Hill coefficient of ACh, a concentration of cysteamine corresponding to its EC50 was used in the presence of increasing concentrations of ACh. Peak currents elicited from cysteamine with ACh (I) were normalized to the initial cysteamine peak current in the absence of ACh (Io).”

ELIC Y38W [3] = test: Two-electrode voltage clamp, Y38W mutant ELIC expressed in Xenopus laevis oocytes; assay type: cell-based, Erwinia chrysanthemi; details: Y38W
Description: as §1, §2, §3, §4

ELIC Y38W [4] = biological target: ELIC Y38W (Dickeya chrysanthemi, UniProt P0C7B7, Y38W); test: as above; assay type: cell-based, Erwinia chrysanthemi; details: Y38W
Description: as §1, §2, §3, §4

[5] = cysteamine as agonist, read-out: Activation EC50
[6] = read-out: Cysteamine concentration corresponding to EC90
[7] = ACh 0.5 mM to 50 mM, followed by 5 mM cysteamine

NCCS [cysteamine]
Cysteamine concentration corresponding to EC10 (ELIC A75D/F133W): 3.9 mM
Cysteamine concentration corresponding to EC20 (ELIC A75D/F133W): 4.8 mM
Activation by amine (whole-cell response) (ELIC A75D/F133W; 25 mM amine, cysteamine at its EC50): still activated
Activation Hill coefficient (ELIC A75D/F133W; cysteamine as agonist): 3.8 ± 0.3
EC50 (ELIC A75D/F133W; [5]): 6.9 ± 0.7 mM
EC90 (ELIC A75D/F133W; [6]): 12.3 mM
Action on ELIC (wild-type ELIC [1]): agonists
Increase in EC50 for cysteamine relative to wild-type (ELIC I79Y): 24 fold
Peak current on application of ligand alone (ELIC I79Y; [7]): robust peak current
Activation Hill coefficient (ELIC I79Y; estimate, cysteamine application for 30 s, 1.5 mM to 100 mM): 2.2 ± 0.3
EC50 (ELIC I79Y; estimate, cysteamine application for 30 s, 1.5 mM to 100 mM, read-out: Activation EC50): 14 ± 1 mM
Cysteamine concentration corresponding to EC10 (ELIC F133W): 1.6 mM
Cysteamine concentration corresponding to EC20 (ELIC F133W): 2.3 mM
Increase in EC50 for cysteamine relative to wild-type (ELIC F133W): 7 fold
Activation Hill coefficient (ELIC F133W; cysteamine as agonist): 2.3 ± 0.3
EC50 (ELIC F133W; [5]): 4.3 ± 0.6 mM
Peak current on application of ligand alone (ELIC F133W; [7]): robust peak current
EC90 (ELIC F133W; [6]): 11.3 mM
Current on application of ligand alone (ELIC L240A (L9′A); L9′A, 30 s applications of ACh 0.5 to 50 mM, then 5 mM cysteamine): robust peak current; also recorded: robust activation
Activation Hill coefficient (ELIC L240A (L9′A); L240A (L9′A), cysteamine as agonist): 2.8 ± 0.1
EC50 (ELIC L240A (L9′A); L240A (L9′A), cysteamine as agonist, read-out: Activation EC50): 0.15 ± 0.01 mM
Cysteamine concentration corresponding to EC10 (wild-type ELIC [2]; WT): 0.2 mM
Cysteamine concentration corresponding to EC20 (wild-type ELIC [2]; WT): 0.3 mM
Activation Hill coefficient (wild-type ELIC [2]; WT ELIC, agonist activation): 2.6 ± 0.4
EC50 (wild-type ELIC [2]; WT ELIC, agonist-activated peak current, −60 mV, mean ± s.d., read-out: Activation EC50): 0.6 ± 0.1 mM
Peak current on application of ligand alone (wild-type ELIC [2]; WT, ACh 0.5 mM to 50 mM, followed by 5 mM cysteamine): robust peak current
EC90 (wild-type ELIC [2]; WT, read-out: Cysteamine concentration corresponding to EC90): 1.3 mM
Change in EC50 for cysteamine compared to wild-type (ELIC Y38W [3]): unchanged
Cysteamine concentration corresponding to EC10 (ELIC Y38W [4]): 0.1 mM
Cysteamine concentration corresponding to EC20 (ELIC Y38W [4]): 0.2 mM
Activation Hill coefficient (ELIC Y38W [4]; cysteamine as agonist): 1.4 ± 0.2
EC50 (ELIC Y38W [4]; [5]): 0.5 ± 0.1 mM
Peak current on application of ligand alone (ELIC Y38W [4]; [7]): robust peak current
EC90 (ELIC Y38W [4]; [6]): 2.6 mM
